Experimental data as given in patent US11339120B2, “Phenyl derivatives as cannabinoid receptor 2 agonists” (priority 2015, dated 2022).
Like-named read-outs stand apart in the source and are kept apart here.

Tests used:
human CB2 receptors = target: T1, human CB2 receptors (Homo sapiens, UniProt P34972); test: functional cAMP assay, CHO cells expressing human CB2; format: cell-based
T1 construct: expressed in transfected cells; host or cells: CHO cells
Method: (§1) CHO cells expressing human CB1 or CB2 receptors are seeded 17-24 hours prior to the experiment 50.000 cells per well in a black 96 well plate with flat clear bottom (Corning Costar #3904) in DMEM (Invitrogen No. 31331), 1×HT supplement, with 10% fetal calf serum and incubated at 5% CO2 and 37° C. in a humidified incubator. The growth medium was exchanged with Krebs Ringer Bicarbonate buffer with 1 mM IBMX and incubated at 30° C. for 30 min. Compounds were added to a final assay volume of 100 μl and incubated for 30 min at 30° C. Using the cAMP-Nano-TRF detection kit the assay (Roche Diagnostics) was stopped by the addition of 50 μl lysis reagent (Tris, NaCl, 1.5% Triton X100, 2.5% NP40, 10% NaN3) and 50 μl detection solutions (20 μM mAb Alexa700-cAMP 1:1, and 48 μM Ruthenium-2-AHA-cAMP) and shaken for 2 h at room temperature. The time-resolved energy transfer is measured by a TRF reader (Evotec Technologies GmbH), equipped with a ND:YAG laser as excitation source. The plate is measured twice with the excitation at 355 nm and at the emission with a delay of 100 ns and a gate of 100 ns, total exposure time 10 s at 730 (bandwidth 30 nm) or 645 nm (bandwidth 75 nm), respectively. The FRET signal is calculated as follows: FRET=T730-Alexa730-P(T645-B645) with P=Ru730-B730/Ru645-B645, where T730 is the test well measured at 730 nM, T645 is the test well measured at 645 nm, B730 and B645 are the buffer controls at 730 nm and 645 nm, respectively. cAMP content is determined from the function of a standard curve spanning from 10 μM to 0.13 nM cAMP.
(§2) EC50 values were determined using Activity Base analysis (ID Business Solution, Limited). The EC50 values for a wide range of cannabinoid agonists generated from this assay were in agreement with the values published in the scientific literature.

human CB1 receptors = target: T2, human CB1 receptors (Homo sapiens, UniProt P21554); test: functional cAMP assay, CHO cells expressing human CB1; format: cell-based
T2 construct: expressed in transfected cells; host or cells: CHO cells
Method: as §1, §2

[1] = functional cAMP assay, CHO cells expressing human CB2, read-out: Human CB2 EC50

T2 sequence (P21554 whole entry): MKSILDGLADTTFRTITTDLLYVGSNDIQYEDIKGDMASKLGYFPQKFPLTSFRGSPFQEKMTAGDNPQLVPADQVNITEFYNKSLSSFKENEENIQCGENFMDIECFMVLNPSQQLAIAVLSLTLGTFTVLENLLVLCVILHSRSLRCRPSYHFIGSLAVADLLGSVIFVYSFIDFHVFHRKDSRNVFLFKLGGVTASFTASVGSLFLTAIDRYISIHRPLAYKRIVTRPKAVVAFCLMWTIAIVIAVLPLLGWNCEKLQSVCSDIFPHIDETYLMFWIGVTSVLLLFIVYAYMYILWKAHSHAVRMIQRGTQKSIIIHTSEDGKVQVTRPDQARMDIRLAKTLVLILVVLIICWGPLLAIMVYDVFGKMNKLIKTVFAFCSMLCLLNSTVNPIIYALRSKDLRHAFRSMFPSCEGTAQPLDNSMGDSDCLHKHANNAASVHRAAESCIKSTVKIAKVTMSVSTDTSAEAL
T1 sequence (P34972 whole entry): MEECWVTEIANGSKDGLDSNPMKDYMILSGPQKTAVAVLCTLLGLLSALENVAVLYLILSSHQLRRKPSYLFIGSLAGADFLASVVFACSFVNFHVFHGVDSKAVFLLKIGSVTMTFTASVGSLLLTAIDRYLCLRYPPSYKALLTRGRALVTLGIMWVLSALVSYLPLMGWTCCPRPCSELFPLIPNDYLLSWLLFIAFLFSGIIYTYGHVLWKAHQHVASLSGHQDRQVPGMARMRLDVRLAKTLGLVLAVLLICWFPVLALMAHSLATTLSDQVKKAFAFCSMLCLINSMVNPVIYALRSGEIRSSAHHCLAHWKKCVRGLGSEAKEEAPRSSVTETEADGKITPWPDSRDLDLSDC

| SMILES | EC50 (human CB2 receptors) [nM] | EC50 (human CB1 receptors) [µM] | EC50 (human CB2 receptors; [1]) [nM] |
| --- | --- | --- | --- |
| C[C@](CC(N)=O)(NC(=O)c1ccc(C2CC2)c(N2CCC(F)(F)C2)c1)C1CC1 [Example 61, N-[(2R)-4-Amino-2-cyclopropyl-4-oxobutan-2-yl]-4-cyclopropyl-3-(3,3-difluoropyrrolidin-1-yl)benzamide] | 2.5 | 1.79 |  |
| C[C@@](CC(N)=O)(NC(=O)c1ccc(C2CC2)c(N2CCC(F)(F)C2)c1)C1CC1 [Example 62, N-[(2S)-4-Amino-2-cyclopropyl-4-oxobutan-2-yl]-4-cyclopropyl-3-(3,3-difluoropyrrolidin-1-yl)benzamide] | 25.9 | > 10 |  |
| Cc1nc([C@@](C)(CC2CC2)NC(=O)c2ccc(C3CC3)c(N3CCC(F)(F)C3)c2)no1 [Example 63, 4-Cyclopropyl-N-[(2R)-1-cyclopropyl-2-(5-methyl-1,2,4-oxadiazol-3-yl)propan-2-yl]-3-(3,3-difluoropyrrolidin-1-yl)benzamide] | 3.83 | 0.872 |  |
| Cc1nc([C@](C)(CC2CC2)NC(=O)c2ccc(C3CC3)c(N3CCC(F)(F)C3)c2)no1 [Example 64, 4-Cyclopropyl-N-[(2S)-1-cyclopropyl-2-(5-methyl-1,2,4-oxadiazol-3-yl)propan-2-yl]-3-(3,3-difluoropyrrolidin-1-yl)benzamide] | 1.08 | > 10 |  |
| NC(=O)[C@@H]1CC(F)(F)CN1C(=O)c1ccc(C2CC2)c(N2CCC(F)(F)C2)c1 [Example 65, 1-[4-Cyclopropyl-3-(3,3-difluoropyrrolidin-1-yl)benzoyl]-4,4-difluoro-L-prolinamide] | 18.1 | > 10 |  |
| CNC(=O)[C@@H](NC(=O)c1ccc(C2CC2)c(N2CCC(F)(F)C2)c1)C(C)(C)C [Example 66, 4-Cyclopropyl-3-(3,3-difluoropyrrolidin-1-yl)-N-[(2S)-3,3-dimethyl-1-(methylamino)-1-oxobutan-2-yl]benzamide] | 0.48 | 0.0421 |  |
| Cc1nc(C(NC(=O)c2ccc(C3CC3)c(OCC(F)(F)F)c2)C2(C)COC2)no1 (stereo not drawn) [Example 67, 4-Cyclopropyl-N-[(5-methyl-1,2,4-oxadiazol-3-yl)(3-methyloxetan-3-yl)methyl]-3-(2,2,2-trifluoroethoxy)benzamide] |  | > 10 | 263 |
| Cc1nc(C(NC(=O)c2ccc(C3CC3)c(OC(C)C)c2)C2(C)COC2)no1 (stereo not drawn) [Example 68, 4-Cyclopropyl-N-[(5-methyl-1,2,4-oxadiazol-3-yl)(3-methyloxetan-3-yl)methyl]-3-[(propan-2-yl)oxy]benzamide] |  | > 10 | 264 |
| CC1(C(CC(N)=O)NC(=O)c2ccc(C3CC3)c(OCC(F)(F)F)c2)COC1 (stereo not drawn) [Example 69, N-[3-Amino-1-(3-methyloxetan-3-yl)-3-oxopropyl]-4-cyclopropyl-3-(2,2,2-trifluoroethoxy)benzamide] |  | > 10 | 1180 |
